# In PubChem BioAssay (NCI):
#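 The compound was tested at five concentrations on cells cultured in 96-well plates, with a 48-hour exposure period. GI50 marks 50% less growth. At the TGI there is no net growth.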
# What was measured:
# Experiment in all cases: NCI anticancer screen, dose series, 48 h
# MCF7 breast = test system: MCF7 breast
# SK-MEL-5 melanoma = test system: SK-MEL-5 melanoma
# UACC-62 melanoma = test system: UACC-62 melanoma
# HS 578T breast = test system: HS 578T breast
# OVCAR-4 ovarian = test system: OVCAR-4 ovarian
# SF-268 CNS = test system: SF-268 CNS
# A498 renal = test system: A498 renal
# SK-MEL-2 melanoma = test system: SK-MEL-2 melanoma
# U251 CNS = test system: U251 CNS
# HOP-62 NSCLC = test system: HOP-62 NSCLC
# SK-OV-3 ovarian = test system: SK-OV-3 ovarian
# MDA-MB-231 breast = test system: MDA-MB-231 breast
# SF-295 CNS = test system: SF-295 CNS
# CAKI-1 renal = test system: CAKI-1 renal
# BT-549 breast = test system: BT-549 breast
# COLO 205 colon = test system: COLO 205 colon
# RPMI-8226 leukemia = test system: RPMI-8226 leukemia
# PC-3 prostate = test system: PC-3 prostate
# EKVX NSCLC = test system: EKVX NSCLC
# NCI-H23 lung = test system: NCI-H23 lung
# SR leukemia = test system: SR leukemia
# KM12 colon = test system: KM12 colon
# DU-145 prostate = test system: DU-145 prostate
# HOP-92 NSCLC = test system: HOP-92 NSCLC
# HT29 colon = test system: HT29 colon
# SNB-75 CNS = test system: SNB-75 CNS
# T-47D breast = test system: T-47D breast
# M14 melanoma = test system: M14 melanoma
# TK-10 renal = test system: TK-10 renal
# LOX IMVI melanoma = test system: LOX IMVI melanoma
# IGROV1 ovarian = test system: IGROV1 ovarian
# K-562 leukemia = test system: K-562 leukemia
# ACHN renal = test system: ACHN renal
# HCC-2998 colon = test system: HCC-2998 colon
# MDA-MB-435 = test system: MDA-MB-435
# MALME-3M melanoma = test system: MALME-3M melanoma
# SN12C renal = test system: SN12C renal
# SF-539 CNS = test system: SF-539 CNS
# OVCAR-5 ovarian = test system: OVCAR-5 ovarian
# UACC-257 melanoma = test system: UACC-257 melanoma
# HCT-15 colon = test system: HCT-15 colon
# NCI-H522 lung = test system: NCI-H522 lung
# 786-0 renal = test system: 786-0 renal
# UO-31 renal = test system: UO-31 renal
# SNB-19 CNS = test system: SNB-19 CNS
# SW-620 colon = test system: SW-620 colon
# HL-60(TB) leukemia = test system: HL-60(TB) leukemia
# OVCAR-8 ovarian = test system: OVCAR-8 ovarian
# HCT-116 colon = test system: HCT-116 colon
# NCI-H226 lung = test system: NCI-H226 lung
# SK-MEL-28 melanoma = test system: SK-MEL-28 melanoma
# CCRF-CEM leukemia = test system: CCRF-CEM leukemia
# NCI/ADR-RES ovarian = test system: NCI/ADR-RES ovarian
# MOLT-4 leukemia = test system: MOLT-4 leukemia
# A549 NSCLC = test system: A549 NSCLC
structure (smiles),measurement,setting,value
CCC1=Cc2cc(OC)ccc2OC12C=Cc1cc(OC)ccc1O2 (configuration not stated),GI50,MCF7 breast,0.389 µM
same,TGI,MCF7 breast,> 100 µM
same,GI50,SK-MEL-5 melanoma,1.42 µM
same,TGI,SK-MEL-5 melanoma,> 100 µM
same,GI50,UACC-62 melanoma,0.553 µM
same,TGI,UACC-62 melanoma,> 100 µM
same,GI50,HS 578T breast,0.298 µM
same,GI50,OVCAR-4 ovarian,> 100 µM
same,TGI,OVCAR-4 ovarian,> 100 µM
same,GI50,SF-268 CNS,1.04 µM
same,TGI,SF-268 CNS,> 100 µM
same,GI50,A498 renal,0.25 µM
same,TGI,A498 renal,0.827 µM
same,GI50,SK-MEL-2 melanoma,0.303 µM
same,TGI,SK-MEL-2 melanoma,0.896 µM
same,GI50,U251 CNS,0.517 µM
same,TGI,U251 CNS,> 100 µM
same,GI50,HOP-62 NSCLC,0.594 µM
same,TGI,HOP-62 NSCLC,> 100 µM
same,GI50,SK-OV-3 ovarian,0.563 µM
same,TGI,SK-OV-3 ovarian,> 100 µM
same,GI50,MDA-MB-231 breast,0.964 µM
same,TGI,MDA-MB-231 breast,> 100 µM
same,GI50,SF-295 CNS,0.418 µM
same,TGI,SF-295 CNS,> 100 µM
same,GI50,CAKI-1 renal,0.504 µM
same,TGI,CAKI-1 renal,> 100 µM
same,GI50,BT-549 breast,0.499 µM
same,TGI,BT-549 breast,3.81 µM
same,GI50,COLO 205 colon,0.326 µM
same,TGI,COLO 205 colon,0.898 µM
same,GI50,RPMI-8226 leukemia,0.393 µM
same,TGI,RPMI-8226 leukemia,> 100 µM
same,GI50,PC-3 prostate,0.536 µM
same,TGI,PC-3 prostate,> 100 µM
same,GI50,EKVX NSCLC,0.678 µM
same,TGI,EKVX NSCLC,> 100 µM
same,GI50,NCI-H23 lung,1.07 µM
same,TGI,NCI-H23 lung,> 100 µM
same,GI50,SR leukemia,0.327 µM
same,TGI,SR leukemia,> 100 µM
same,GI50,KM12 colon,0.423 µM
same,TGI,KM12 colon,> 100 µM
same,GI50,DU-145 prostate,0.481 µM
same,TGI,DU-145 prostate,> 100 µM
same,GI50,HOP-92 NSCLC,0.964 µM
same,TGI,HOP-92 NSCLC,> 26.7 µM
same,GI50,HT29 colon,0.347 µM
same,TGI,HT29 colon,1.27 µM
same,GI50,SNB-75 CNS,0.218 µM
same,TGI,SNB-75 CNS,0.72 µM
same,TGI,T-47D breast,> 100 µM
same,GI50,M14 melanoma,0.366 µM
same,GI50,TK-10 renal,> 100 µM
same,TGI,TK-10 renal,> 100 µM
same,GI50,LOX IMVI melanoma,0.484 µM
same,TGI,LOX IMVI melanoma,> 100 µM
same,GI50,IGROV1 ovarian,0.739 µM
same,TGI,IGROV1 ovarian,> 100 µM
same,GI50,K-562 leukemia,0.379 µM
same,TGI,K-562 leukemia,> 100 µM
same,GI50,ACHN renal,0.789 µM
same,TGI,ACHN renal,> 100 µM
same,GI50,HCC-2998 colon,1.71 µM
same,TGI,HCC-2998 colon,> 100 µM
same,GI50,MDA-MB-435,0.228 µM
same,TGI,MDA-MB-435,0.503 µM
same,GI50,MALME-3M melanoma,0.624 µM
same,TGI,MALME-3M melanoma,> 100 µM
same,GI50,SN12C renal,0.796 µM
same,TGI,SN12C renal,> 100 µM
same,GI50,SF-539 CNS,0.328 µM
same,TGI,SF-539 CNS,2.15 µM
same,GI50,OVCAR-5 ovarian,0.936 µM
same,TGI,OVCAR-5 ovarian,> 100 µM
same,GI50,UACC-257 melanoma,0.977 µM
same,TGI,UACC-257 melanoma,> 100 µM
same,GI50,HCT-15 colon,0.45 µM
same,TGI,HCT-15 colon,> 100 µM
same,GI50,NCI-H522 lung,0.283 µM
same,TGI,NCI-H522 lung,0.936 µM
same,GI50,786-0 renal,0.676 µM
same,TGI,786-0 renal,> 100 µM
same,GI50,UO-31 renal,1.15 µM
same,TGI,UO-31 renal,> 100 µM
same,GI50,SNB-19 CNS,0.55 µM
same,TGI,SNB-19 CNS,> 100 µM
same,GI50,SW-620 colon,0.385 µM
same,TGI,SW-620 colon,> 100 µM
same,GI50,HL-60(TB) leukemia,0.331 µM
same,TGI,HL-60(TB) leukemia,> 100 µM
same,GI50,OVCAR-8 ovarian,0.596 µM
same,TGI,OVCAR-8 ovarian,> 100 µM
same,GI50,HCT-116 colon,0.518 µM
same,TGI,HCT-116 colon,> 100 µM
same,GI50,NCI-H226 lung,1.06 µM
same,TGI,NCI-H226 lung,> 100 µM
same,GI50,SK-MEL-28 melanoma,> 100 µM
same,TGI,SK-MEL-28 melanoma,> 100 µM
same,GI50,CCRF-CEM leukemia,0.398 µM
same,TGI,CCRF-CEM leukemia,> 100 µM
same,GI50,NCI/ADR-RES ovarian,0.421 µM
same,TGI,NCI/ADR-RES ovarian,> 100 µM
same,GI50,MOLT-4 leukemia,0.5 µM
same,TGI,MOLT-4 leukemia,> 100 µM
same,GI50,A549 NSCLC,0.809 µM
same,TGI,A549 NSCLC,> 100 µM
